In article PMC4366281 (Nature chemical biology, 2015):

Target: T1, MtbVKOR (Mycobacterium tuberculosis, UniProt I6X5W1)
T1 sequence (I6X5W1 1-210): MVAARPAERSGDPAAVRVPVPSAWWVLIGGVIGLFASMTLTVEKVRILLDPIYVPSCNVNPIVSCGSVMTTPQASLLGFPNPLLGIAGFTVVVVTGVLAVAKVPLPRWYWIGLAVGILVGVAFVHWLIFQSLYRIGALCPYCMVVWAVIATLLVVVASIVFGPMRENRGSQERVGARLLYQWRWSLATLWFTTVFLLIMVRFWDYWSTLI
Test: HTS agar 384-well X-Gal assay, MtbVKOR-complemented E. coli dsbB null strain
Type: cell-based
Settings: agar assay / re-test

## O=C1c2ccccc2C(=O)C1c1ccc(Br)cc1 [brominedione]
  inhibition of MtbVKOR-dependent E. coli strain: specific hit
